Reference: ChEMBL document CHEMBL2028040, “Malaria Box”

How the values were obtained:
Plasmodium falciparum = assay: MMV: Inhibition of Plasmodium falciparum 3D7 at 5uM compound concentration.; type: functional
Trypanosoma cruzi = assay: MMV: Inhibition of Trypanosoma cruzi (Tulahuen C4 LacZ) (Chagas in vitro).; type: functional, organism-based
[1] = system: Trypanosoma brucei brucei; assay: MMV: Inhibition of Trypanosoma brucei brucei (Squib 427) (HAT in vitro).; type: functional, organism-based
[2] = system: Trypanosoma brucei rhodesiense; assay: MMV: Inhibition of Trypanosoma brucei rhodesiense (STIB 900) (HAT in vitro).; type: functional, organism-based
Leishmania infantum = assay: MMV: Inhibition of Leishmania infantum (MHOM/MA/BE/67) in vitro.; type: functional, organism-based
[3] = MMV: Cytotoxicity against human fibroblasts (MRC-5) cells.; conditions: MRC-5 cells (human fibroblasts)

Row | Structure (SMILES) | inhibition at 5 µM (Plasmodium falciparum) [%] | IC50 (Trypanosoma cruzi) [µM] | IC50 [1] [µM] | IC50 [2] [µM] | IC50 (Leishmania infantum) [µM] | IC50 [3] [µM]
1 | COc1ccc(C(=O)C(CCC(CNC(C)(C)C)C(=O)c2ccc(OC)cc2)CNC(C)(C)C)cc1 (stereo unspecified) | 85 | 4.15 | 1.02 | 1.65 | 0.846 | 10.3
2 | COc1ccc(C)c2sc(N(Cc3cccnc3)C(=O)c3ccc(C#N)cc3)nc12 | 91 | 2.32 | 14.6 | 16 | > 32 | > 32
3 | Cc1ccc(CN2CCC(C(=O)Nc3ccc(-c4cc5ccccc5[nH]4)cc3)CC2)o1 | 77 | 15.9 | 3.33 | 0.971 | 13.6 | 15.7
4 | O=C1CC(O)(C(F)(F)C(F)(F)F)Oc2ccccc21 (stereo unspecified) | 95 | 16.3 | > 32 | 30.3 | > 32 | 18.1
5 | CCN(CC)c1ccc(NC(=O)c2cccs2)cc1 | 88 | > 32 | > 32 | > 32 | > 32 | > 32
6 | Oc1c(CN2CCN(c3ccccc3F)CC2)cc(Br)c2cccnc12 | 91 | 0.963 | 1.15 | 1.05 | > 32 | 5.58
7 | CCOc1ccccc1NC(=O)CN1CCN(C(=O)c2ccco2)CC1 | 83 | > 32 | > 32 | > 32 | > 32 | > 32
8 | COc1ccccc1N1CCN(C(CNS(=O)(=O)c2ccc(Cl)cc2)c2cccnc2)CC1 (stereo unspecified) | 93 | 0.899 | 16.2 | 16.2 | > 32 | > 32
9 | O=C(Nc1ccc(Cl)cc1C(=O)Nc1ccncc1)c1ccc(Cl)cc1Cl | 94 | > 32 | > 32 | > 32 | > 32 | > 32
10 | CCOC(=O)c1c[nH]c2c(CC)cccc2c1=O | 87 | > 32 | > 32 | > 32 | > 32 | > 32
11 | CN(C)c1ccc(N=Cc2ccc(N3CCOCC3)cc2)cc1 | 96 | 17 | 13.3 | 3.51 | 10.1 | > 32
12 | O=C(Nc1cccc(C(F)(F)F)c1)c1cc(Cl)ccc1O | 93 | 0.343 | 0.657 | 0.7 | 16.2 | 0.241
13 | COCCn1c(C)nc2ccccc2c1=O | 59 | > 32 | > 32 | > 32 | > 32 | > 32
14 | COc1ccc(-c2nonc2NC(=O)c2cccc(C)c2)cc1OC | 95 | > 32 | > 32 | > 32 | > 32 | > 32
15 | COc1ccc(C(O)(CCC(C)C)C(CN2CCOCC2)c2ccc(Cl)cc2)cc1 (stereo unspecified) | 97 | 4.26 | 3.85 | 4 | 4.76 | 10.8
16 | O=c1nc(C=Cc2ccc(Br)cc2)oc2ccccc12 | 94 | 4.17 | 16 | 16.1 | 4.06 | 4
17 | O=C(Nc1ccsc1C(=O)NC1CCCCC1)c1ccc(F)cc1 | 86 | > 32 | > 32 | > 32 | > 32 | > 32
18 | CCC(=O)Nc1nnc(Cc2ccc(OC)c(OC)c2)s1 | 47 | > 32 | > 32 | > 32 | > 32 | > 32
19 | N=c1c2ccccc2nnn1-c1cccc(C(F)(F)F)c1 | 83 | > 32 | > 32 | > 32 | > 32 | > 32
20 | O=C(Nc1ccc(Br)cc1)Nc1cccc(Cl)c1 | 94 | 5.21 | 4 | 3.09 | 10.2 | > 32
21 | CCCCCCC(O)(c1ccc(F)cc1)C(CN1CCOCC1)c1ccccc1 (stereo unspecified) | 93 | 4.78 | 16.2 | 12.5 | 4.32 | > 32
22 | Cc1ccc(-c2nc3ccccc3o2)cc1NCc1cc(Cc2ccccc2)ccc1O | 64 | > 32 | > 32 | > 32 | 16.2 | > 32
23 | CCOc1ccc(CCNC(=O)c2cccs2)cc1OCC | 95 | > 32 | > 32 | > 32 | > 32 | > 32

Row | Structure (SMILES) | inhibition at 5 µM (Plasmodium falciparum) [%] | IC50 (Trypanosoma cruzi) [µM] | IC50 [1] [µM] | IC50 [2] [µM] | IC50 (Leishmania infantum) [µM] | IC50 [3] [µM]
24 | CCN1CCN(c2c(C(=O)c3ccccc3)cnc3cc(OC)c(OC)cc23)CC1 | 59 | > 32 | > 32 | 17.9 | > 32 | > 32
25 | Oc1ccc2ccccc2c1CNc1nc2ccccc2[nH]1 | 83 | > 32 | 16.1 | 8.65 | > 32 | > 32
26 | CCCCOc1ccc(C(=O)Nc2cc(C)on2)cc1 | 73 | > 32 | > 32 | > 32 | > 32 | > 32
27 | CC(C)(C)c1ccc(C(=O)Nc2nc3ccccc3s2)cc1 | 81 | > 32 | > 32 | > 32 | > 32 | > 32
28 | CC(C)(C)c1ccc(C(=O)Nc2c3c(nn2-c2cccc(Cl)c2)CSC3)cc1 | 93 | > 32 | 16.1 | > 32 | > 32 | > 32
29 | O=C(Nc1ccccc1O)c1ccc(Oc2cccc(C(=O)Nc3ccccc3O)c2)cc1 | 91 | > 32 | > 32 | > 32 | > 32 | > 32
30 | Cc1ccc(NC(=O)Nc2cccc(Cl)c2)cc1F | 52 | 6.29 | 5.81 | 4.03 | > 32 | > 32
31 | Cn1c(C(=O)c2cccc3ccccc23)nc2ccccc21 | 89 | > 32 | > 32 | 29.2 | 16 | > 32
32 | COc1ccccc1CNC(=O)C1c2ccccc2C(=O)N(CC(C)C)C1c1cccs1 (stereo unspecified) | 97 | > 32 | > 32 | 19.7 | > 32 | > 32
33 | O=c1c2c([nH]c3ccccc13)CCCC2 | 82 | > 32 | > 32 | > 32 | > 32 | > 32
34 | O=C(NC1CCCC1)c1ccc(N2CCC(NCc3cccc(C(F)(F)F)c3)CC2)cc1 | 93 | 21.3 | > 32 | 14.4 | 16.6 | > 32
35 | O=C(c1ccccc1F)N(Cc1ccc(Cl)cc1)c1ccccn1 | 59 | > 32 | > 32 | > 32 | > 32 | > 32
36 | CN(C)c1ccc(-c2nc3cc(N)ccc3[nH]2)cc1 | 64 | 17.4 | 19.6 | 18 | > 32 | > 32
37 | CCCCN(CCCC)S(=O)(=O)c1ccc(NC(=O)c2ccco2)cc1 | 78 | > 32 | > 32 | 16.3 | > 32 | > 32
38 | O=C(Nc1ccccc1O)c1ccc(-c2ccc(Cl)cc2Cl)o1 | 97 | > 32 | 13.7 | 13.5 | > 32 | > 32
39 | CCCc1c(C)nc2ccccc2c1O | 88 | > 32 | > 32 | > 32 | > 32 | > 32
40 | OC1CCCCC1C1(NC(=S)Nc2ccccc2)CCCCC1 (stereo unspecified) | 59 | 12.2 | 12.4 | 4.12 | 4.32 | > 32
41 | FC(F)(F)c1ccc(Nc2nnnc3ccccc23)cc1 | 77 | > 32 | > 32 | > 32 | > 32 | > 32
42 | COc1ccc(C(=O)Nc2ccc(Cl)cc2C(=O)Nc2ccncc2)cc1 | 93 | > 32 | > 32 | > 32 | > 32 | > 32
43 | COc1ccc(N2CCN(C(CNC(=O)CC(C)(C)C)c3ccc4c(c3)OCO4)CC2)cc1 (stereo unspecified) | 95 | 19.7 | > 32 | 27.6 | > 32 | > 32
44 | Cc1c(C)n(Cc2ccc(F)cc2)c2ccc(C(=O)NCc3ccco3)cc12 | 52 | > 32 | 11 | 15.4 | > 32 | > 32
45 | CCOc1ccc(-c2nc(NC(=O)c3cccc(S(C)(=O)=O)c3)sc2C)cc1 | 95 | > 32 | 14.9 | 15.3 | > 32 | > 32
46 | COc1ccc(C2N(C)c3ccccc3N2C)cc1 | 62 | > 32 | > 32 | > 32 | > 32 | > 32
